# Measured values taken from patent US4303660A, “Pyrazolo[1,5-c]quinazoline derivatives and analgesic compositions containing them” (priority 1979, dated 1981).
# Read-outs that look alike come from different tables or passages of the source.
# What was measured:
# [1] = in vivo; conditions: printed under the reference substance in Table III
# [2] = test system: gastric acid secretion; format: in vivo, rats; conditions: for Inhibition of gastric acid secretion, percentage: rats
# Excerpt: The influence of the compounds of the invention on the gastric acid secretion was studied on rats weighing 170 to 260 g according to Shay [Gastroenterology, 5, 43 (1945)].
# [3] = test system: small intestine; assay: Antiperistaltic effect (carbon suspension, small intestine); format: in vivo, mice; conditions: for ED50: Mus musculus, read-out: ED50 p.o.
# Method: The antiperistaltic effect of the compounds of the invention was examined on groups of mice consisting of 10 animals. Each dosis of the compound to be tested was administered to one group, orally, 60 minutes prior to the administration of a 10 percent carbon suspension. 20 minutes after the administration of the carbon suspension, the animals were sacrificed and the length of the entire small intestine as well as that of the small intestine filled with carbon were determined. The reference substance used was papaverine [1-(3,4-dimethoxybenzyl)-6,7-dimethoxyisoquinoline].
# [4] = test system: acetic acid writhing; assay: Acetic acid writhing test (analgesic activity); conditions: for ED50: Mus musculus, read-out: ED50 p.o.
# Method: The analgesic activity was studied by means of the acetic acid writhing test on mice. After the intraperitoneal administration of 0.4 ml of 0.5 percent acetic acid, the writhing responses were counted between the 5 and 10 minutes. The writhing number was calculated as the percentage of the control value. The compounds tested were orally administered to the animals 1 hour prior to the treatment with acetic acid. […] Paracetamole [p-hydroxyacetanilide] and phenylbutazon [4-butyl-1,2-diphenylpyrazolidine-3,5-dione] were used as reference substance.
# [5] = Acute toxicity; conditions: mouse, in vivo; oral; mice weighing 18 to 22 g
# Method: The acute toxicity of the pyrazolo[1,5-c]quinazoline derivatives of the general formula I were determined on mice weighing 18 to 22 g. The compounds were administered orally.
# [6] = antiperistaltic effect, oral, 60 minutes prior to 10 percent carbon suspension, mice
smiles,measurement,setting,value
"CCCN(CCC)C(=O)C(CCC(=O)O)NC(=O)c1ccccc1 (racemic) [proglumide, D,L-4-benzamido-N,N-dipropylglutaramic acid, reference compound]",LD50,[1],2780 mg/kg
same,"Inhibition of gastric acid secretion, percentage",[2]; 200 mg/kg p.o.,about 20 percentage
same,Therapeutic index,"[2]; gastric acid secretion, p.o.",11.4
"O=[N+]([O-])c1cnn2cnc3ccccc3c12 [Example 1, 1-Nitropyrazolo[1,5-c]quinazoline]",ED50,[3]; [6],18 mg/kg
same,Therapeutic index,"[3]; mouse, in vivo, po",111
same,ED50,[4]; po,50 mg/kg
same,Therapeutic index,"[4]; mouse, in vivo, po",40
same,LD50,[5],2000 mg/kg
"Cc1nc2ccccc2c2c([N+](=O)[O-])cnn12 [Example 3, 1-Nitro-5-methylpyrazolo[1,5-c]quinazoline]",ED50,[3]; [6],400 mg/kg
same,Therapeutic index,"[3]; mouse, in vivo, po",5
same,LD50,[5],2000 mg/kg
"CC(=O)Nc1cnn2cnc3ccccc3c12 [Example 5, 1-Acetaminopyrazolo[1,5-c]quinazoline]",ED50,[3]; [6],400 mg/kg
same,Therapeutic index,"[3]; mouse, in vivo, po",5
same,LD50,[5],2000 mg/kg
same,"Inhibition of gastric acid secretion, percentage",[2]; 70 mg/kg p.o.,about 50 percentage
same,"Inhibition of gastric acid secretion, percentage",[2]; 100 mg/kg p.o.,93 percentage
same,Therapeutic index,"[2]; rat, in vivo, po",28.6
"CC1(C)Nc2ccccc2-c2c([N+](=O)[O-])cnn21 [Example 9, 1-Nitro-5,5-dimethyl-5,6-dihydropyrazolo[1,5-c]quinazoline]",ED50,[3]; [6],400 mg/kg
same,Therapeutic index,"[3]; mouse, in vivo, po",5
same,LD50,[5],2000 mg/kg
"CC(=O)N1c2ccccc2-c2c([N+](=O)[O-])cnn2C1C (stereo not drawn) [Example 27, 1-Nitro-5-methyl-6-acetyl-5,6-dihydropyrazolo[1,5-c]quinazoline]",ED50,[3]; [6],50 mg/kg
same,Therapeutic index,"[3]; mouse, in vivo, po",40
same,LD50,[5],2000 mg/kg
same,"Inhibition of gastric acid secretion, percentage",[2]; 50 mg/kg p.o.,33 percentage
same,"Inhibition of gastric acid secretion, percentage",[2]; 62 mg/kg p.o.,about 50 percentage
same,"Inhibition of gastric acid secretion, percentage",[2]; 100 mg/kg p.o.,82 percentage
same,Therapeutic index,"[2]; rat, in vivo, po",32.3
"CC(=O)N1c2ccccc2-c2c([N+](=O)[O-])cnn2C1(C)C [Example 31, 1-Nitro-5,5-dimethyl-6-acetyl-5,6-dihydropyrazolo[1,5-c]quinazoline]",ED50,[3]; [6],50 mg/kg
same,Therapeutic index,"[3]; mouse, in vivo, po",40
same,LD50,[5],2000 mg/kg
"CC(=O)Nc1cnn2c1-c1ccccc1NC2(C)C [Example 33, 1-Acetamino-5,5-dimethyl-5,6-dihydropyrazolo[1,5-c]quinazoline]",ED50,[3]; [6],45 mg/kg
same,Therapeutic index,"[3]; mouse, in vivo, po",45
same,LD50,[5],2000 mg/kg
CC(=O)Nc1cnn2c1-c1ccccc1N(C(C)=O)C2(C)C [Example 34],ED50,[3]; po,60 mg/kg
same,Therapeutic index,"[3]; antiperistaltic effect, p.o.",33
same,ED50,[4]; po,25 mg/kg
same,Therapeutic index,"[4]; analgesic activity test, p.o.",80
same,LD50,[5],2000 mg/kg
"CC(=O)Nc1cnn2c1-c1ccccc1N(C(C)=O)C2C (stereo not drawn) [Example 35, 1-Acetamino-5-methyl-6-acetyl-5,6-dihydropyrazolo[1,5-c]quinazoline]",ED50,[3]; [6],145 mg/kg
same,Therapeutic index,"[3]; mouse, in vivo, po",14
same,LD50,[5],2000 mg/kg
"CC(=O)Nc1cnn2c(C)nc3ccccc3c12 [Example 36, 1-Acetamino-5-methylpyrazolo[1,5-c]quinazoline]",ED50,[3]; [6],360 mg/kg
same,Therapeutic index,"[3]; mouse, in vivo, po",5
same,LD50,[5],1800 mg/kg
same,"Inhibition of gastric acid secretion, percentage",[2]; 50 mg/kg p.o.,30 percentage
same,"Inhibition of gastric acid secretion, percentage",[2]; 65 mg/kg p.o.,about 50 percentage
same,"Inhibition of gastric acid secretion, percentage",[2]; 100 mg/kg p.o.,73 percentage
same,Therapeutic index,"[2]; rat, in vivo, po",27.7
"CN/C(=N/CCSCc1nc[nH]c1C)NC#N [cimetidine, 1-methyl-3-[2-(5-methylimidazol-4-yl-methylthio)ethyl]guanidine-2-carbonitrile, reference compound]",LD50,[1],470 mg/kg
same,"Inhibition of gastric acid secretion, percentage",[2]; 50 mg/kg p.o.,45 percentage
same,Therapeutic index,"[2]; rat, in vivo, po",9.4
"COc1ccc(Cc2nccc3cc(OC)c(OC)cc23)cc1OC [papaverine, 1-(3,4-dimethoxybenzyl)-6,7-dimethoxyisoquinoline, reference compound]",ED50,[3]; po,180 mg/kg
same,Therapeutic index,"[3]; antiperistaltic effect, p.o.",3.4
"CC(=O)Nc1ccc(O)cc1 [paracetamole, p-hydroxyacetanilide, reference compound]",ED50,[4]; po,180 mg/kg
same,Therapeutic index,"[4]; analgesic activity test, p.o.","2,8"
"CCCCC1C(=O)N(c2ccccc2)N(c2ccccc2)C1=O [phenylbutazon, 4-butyl-1,2-diphenylpyrazolidine-3,5-dione, reference compound]",ED50,[4]; po,60 mg/kg
same,Therapeutic index,"[4]; mouse, in vivo, po","16,6"
